Source: EP0271192A2, “Purine histamine H1 antagonists, their preparation and pharmaceutical compositions containing them” (AMERICAN HOME PRODUCTS CORPORATION, priority 1986, dated 1988)

Columns and labels:
[1] = target: T1, H₁-receptor (Cavia porcellus, UniProt P31389); assay: Reduction of histamine-induced contraction of isolated guinea pig ileum; assay type: cell-based, guinea pigs; settings: test drug 1 × 10⁻⁷M in the presence of histamine 1 × 10⁻⁶M; guinea pig terminal ileum; quadruplicate sets of tissues; read-out: percent reduction in tissue contraction
T1 construct: Fresh segments of terminal ileum immediately proximal to Peyer's patch, obtained from male Buckshire guinea pigs; from tissue; host or cells: guinea pig terminal ileum segments
T1 sequence (P31389 whole entry): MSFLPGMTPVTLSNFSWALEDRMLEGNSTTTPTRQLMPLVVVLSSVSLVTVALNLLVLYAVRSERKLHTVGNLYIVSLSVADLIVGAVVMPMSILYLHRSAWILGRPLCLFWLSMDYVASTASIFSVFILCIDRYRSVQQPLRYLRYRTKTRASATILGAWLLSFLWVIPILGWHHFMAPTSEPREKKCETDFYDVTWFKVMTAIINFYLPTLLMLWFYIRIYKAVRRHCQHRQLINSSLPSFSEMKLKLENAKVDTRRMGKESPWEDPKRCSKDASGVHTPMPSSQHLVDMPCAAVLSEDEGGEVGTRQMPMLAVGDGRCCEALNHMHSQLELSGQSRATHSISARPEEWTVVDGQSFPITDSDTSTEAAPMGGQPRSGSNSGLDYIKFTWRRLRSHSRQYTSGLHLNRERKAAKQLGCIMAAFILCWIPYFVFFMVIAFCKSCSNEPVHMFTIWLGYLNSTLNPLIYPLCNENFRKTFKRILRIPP
Description: The compounds of this invention were established to be histamine H₁-antagonists by subjecting them to the following standard test procedures for H₁-blocking activity:
Fresh segments of terminal ileum immediately proximal to Peyer's patch, obtained from male Buckshire guinea pigs, were suspended in 37°C Tyrode's solution in a tissue bath and aerated. The tissue segments were placed under one gram tension and allowed to equilibrate for one hour. Histamine was added to each tissue bath to a final concentration of 1 × 10⁻⁶M. The contraction response after it equilibrated was noted as grams tension. Test drug was added, in the presence of histamine, to each bath to a final concentration of 1 × 10⁻⁷M. The change in grams tension was noted and the percent reduction in grams tension calculated.

[2] = target: T1, H₁-receptor; assay: Shift of the histamine dose-response curve in ileum tissue; assay type: cell-based, guinea pigs; settings: ileum tissues
[3] = test system: histamine-induced death in guinea pigs; assay: Protection against histamine-induced death after oral pretreatment; assay type: in vivo

| Structure (SMILES) | inhibition at 0.1 µM [1] [%] | Kb ([2]; calculated via formula from the dose-response curve shift at 10⁻⁸M compound, read-out: histamine H₁antagonist potency) [nM] | shift of histamine dose-response curve ([2]; compound at 10⁻⁸M) | Percent Survival ([3]; 0.5 mg/kg p.o., 18 Hours pretreatment, Trial5) [%] | Percent Survival ([3]; 0.5 mg/kg p.o., 18 Hours pretreatment, Trial 6) [%] | Percent Survival ([3]; 1.0 mg/kg p.o., 1 Hour pretreatment, Trial 1) [%] | Percent Survival ([3]; 1.0 mg/kg p.o., 1 Hour pretreatment, Trial 2) [%] | Percent Survival ([3]; 1.0 mg/kg p.o., 1 Hour pretreatment, Trial 3) [%] | Percent Survival ([3]; 1.0 mg/kg p.o., 2 Hours pretreatment, Trial 3) [%] | Percent Survival ([3]; 1.0 mg/kg p.o., 2 Hours pretreatment, Trial 4) [%] | Percent Survival ([3]; 1.0 mg/kg p.o., 18 Hours pretreatment, Trial5) [%] | Percent Survival ([3]; 5.0 mg/kg p.o., 1 Hour pretreatment, Trial 1) [%] | Percent Survival ([3]; 10.0 mg/kg p.o., 2 Hours pretreatment, Trial 4) [%] |
| --- | --- | --- | --- | --- | --- | --- | --- | --- | --- | --- | --- | --- | --- |
| Cn1c(=O)c2c(ncn2CCN2CCC(OC(c3ccc(F)cc3)c3ccc(F)cc3)CC2)n(C)c1=O [Example 4, 7-[2-[4-Bis(4-fluorophenyl)methoxy]-1-piperidinyl]ethyl-3,7-dihydro-1,3-dimethyl-1H-purine-2,6-dione] | 62 | – | – | – | – | – | – | – | – | – | – | – | – |
| Cn1c(=O)c2c(ncn2CCCN2CCC(OC(c3ccccc3)c3ccccc3)CC2)n(C)c1=O [Example 1, 7-[3-(4-Diphenylmethoxy)-1-piperidinyl]propyl-3,7-dihydro-1,3-dimethyl-1H-purine-2,6-dione] | 92 | 0.29 | marked, parallel shift of the curve to the right | 70 | 40 | 40 | 10 | 40 | 70 | 70 | 80 | 80 | 60 |
